# Data from patent US8486946B2, “Pyrazolo [4,3-c] cinnolin-3-one M1 receptor positive allosteric modulators” (Merck Sharp & Dohme Corp., priority 2009, dated 2013).
# Target: T1, acetylcholine muscarinic M1 receptor (Homo sapiens, UniProt P11229)
# T1 construct: expressed in transfected cells; host or cells: CHOnfat (CHO cells; also called CHOK1/hM1)
# T1 sequence (P11229 1-460): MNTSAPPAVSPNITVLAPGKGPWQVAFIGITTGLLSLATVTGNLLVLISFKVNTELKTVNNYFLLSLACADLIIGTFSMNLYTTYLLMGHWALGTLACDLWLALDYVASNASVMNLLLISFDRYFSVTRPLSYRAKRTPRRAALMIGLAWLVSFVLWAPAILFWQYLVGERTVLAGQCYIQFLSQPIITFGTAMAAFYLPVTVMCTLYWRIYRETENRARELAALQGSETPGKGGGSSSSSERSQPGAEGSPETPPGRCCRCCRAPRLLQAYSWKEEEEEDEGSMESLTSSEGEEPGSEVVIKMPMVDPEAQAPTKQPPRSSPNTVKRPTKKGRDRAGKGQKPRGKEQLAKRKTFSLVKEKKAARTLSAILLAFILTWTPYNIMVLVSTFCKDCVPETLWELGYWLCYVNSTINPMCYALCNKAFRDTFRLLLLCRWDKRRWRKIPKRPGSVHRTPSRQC
# Experiment: Muscarinic FLIPR intracellular calcium assay for M1 positive allosteric modulator activity in CHOnfat/hM1 cells
# Format: cell-based
# Details: 4 min preincubation, then EC20 acetylcholine (3 nM final), calculated from FLIPR values, read-out: IP Value (inflection point)
# Protocol: The assay studies the effect of one or several concentrations of test compounds on basal or acetylcholine-stimulated Ca^2+ levels using FLIPR.
# Compounds are prepared and subjected to a preincubation period of 4 min. Thereafter, a single EC20 concentration of acetylcholine is added to each well (3 nM final). The intracellular Ca^2+ level of each sample is measured and compared to an acetylcholine control to determine any modulatory activity.
# Cells: CHOnfat/hM1, hM2, hM3 or hM4 cells are plated 24 hr before the assay at a density of 18,000 cells/well (100 μL) in a 384 well plate. CHOnfat/hM1 and CHOnfat/hM3 Growth Medium: 90% DMEM (Hi Glucose); 10% HI FBS; 2 mM L-glutamine; 0.1 mM NEAA; Pen-Strep; and 1 mg/ml Geneticin, are added. For M2Gqi5CHOnfat and M4Gqi5CHOnfat cells, an additional 600 ug/ml hygromycin is added.
# Equipment: 384 well plate, 120 μL addition plate; 96-well Whatman 2 ml Uniplate Incubator, 37° C., 5% CO2; Skatron EMBLA-384 Plate Washer; Multimek Pipetting System; Genesis Freedom 200 System; Mosquito System; Temo Nanoliter Pipetting System; and FLIPR^384 Fluorometric Imaging Plate Reader System are used.
# Buffers. Assay Buffer: Hanks Balanced Salt Solution, with 20 mM Hepes, 2.5 mM Probenecid (Sigma P-8761) first dissolved in 1 N NaOH, 1% Bovine Serum Albumin (Sigma A-9647). Dye Loading Buffer: Assay Buffer plus 1% Fetal Bovine Serum and Fluo-4AM/Pluronic Acid Mixture. 2 mM Fluo-4AM ester stock in DMSO (Molecular Probes F-14202) Concentration of 2 μM in buffer for a final concentration of 1 μM in Assay. 20% Pluronic Acid Solution stock, with concentration of 0.04% in Buffer, 0.02% in Assay.
# 65 μL of 2 mM Fluo-4AM are mixed with 130 μL of 20% Pluronic Acid. The resulting solution and 650 μL FBS is added to the assay buffer for a total volume of 65 mL. Positive Controls: 4-Br-A23187: 10 mM in DMSO; final concentration 10 μM. Acetylcholine: 10 mM in water, working stock at both 20 μM and 30 μM in assay buffer, final concentration of 10 μM. This is used to check the maximum stimulation of the CHOK1/hM1 cells. 20 μM (2×) acetylcholine is added in the preincubation part of the assay, and the 30 μM (3×) stock is added in the second part. (EC20)Acetylcholine: 10 mM in water, working stock of 9 nM (3×), and final concentration in assay is 3 nM. This is used after the preincubation with test compounds. Addition of the EC20 Acetylcholine to each well with a test compound will ascertain any modulator activity. 24 wells contain 3 nM Acetylcholine alone as a control.
# Determining Activity of Putative Compounds:
# Screening Plate Compounds are titrated in 96-well plates (columns 2-11), 100% DMSO, started at a concentration of 15 mM (150× stock concentration), and 3-fold serial dilutions using Genesis Freedom200 System. Four 96-well plates are combined into a 384-well plate using Mosquito Nanoliter Pipetting System by transferring 1 μl of serial diluted compounds to each well, and 1 mM acetylcholine (100× stock concentration) were added as a control. Using Temo, 49 μl assay buffer is added to each well of the 384-well plate right before assay.
# In a 96-well Whatman 2 ml Uniplate, 9 nM Acetylcholine (3×) is pipetted into wells corresponding to the screening compounds, and into control wells. The 30 μM acetylcholine control (3×) is added into control wells, and the 3× agonist plate is transferred into a 384 well plate.
# Cells are washed three times with 100 μL of buffer, leaving 30 μL of buffer in each well. Using Multimek, 30 μL of Dye Loading Buffer is added into each well and incubated at 37° C., 5% CO2 for up to one hr.
# After 60 min, the cells are washed three times with 100 μL of buffer, leaving 30 μL of buffer in each well. The cell plate, screening plate, and agonist addition plates are placed on the platform in the FLIPR and the door closed. A signal test to check background fluorescence and basal fluorescence signal is performed. Laser intensity is adjusted if necessary. […]
row,SMILES,EC50 [nM]
1,"O=c1c2nn(Cc3ccc(-n4cccn4)cc3)c3c(Cl)cccc3c-2nn1[C@H]1CCOC[C@@H]1O (single isomer, unassigned) [Example 63, 6-Chloro-2-(trans-3-hydroxytetrahydro-2H-pyran-4-yl)-5-[4-(1H-pyrazol-1-yl)benzyl]-2,5-dihydro-3H-pyrazolo[4,3-c]cinnolin-3-one]",593
2,"C[C@@H]1CCOC[C@@H]1n1nc2c3ccccc3n(Cc3ccc(-n4cccn4)cc3)nc-2c1=O (single isomer, unassigned) [Example 73, cis-2-[4-Methyltetrahydro-2,1-pyran-3-yl]-5-[4-(1H-pyrazol-1-yl)benzyl]-2,5-dihydro-3H-pyrazolo[4,3-c]cinnoline-3-one]",771
3,"C[C@H]1CCOC[C@@H]1n1nc2c3ccccc3n(Cc3ccc(-n4cccn4)cc3)nc-2c1=O (single isomer, unassigned) [Example 74]",636
4,"C[C@@H]1CCOC[C@@H]1n1nc2c3ccccc3n(Cc3ccc(-n4cccn4)cc3)nc-2c1=O (single isomer, unassigned) [Example 75, cis-2-[4-Methyltetrahydro-2H-pyran-3-yl]-5-[4-(1H-pyrazol-1-yl)benzyl]-2,5-dihydro-3H-pyrazolo[4,3-c]cinnoline-3-one]",158
5,"O=c1c2nn(Cc3ccc(-n4cccn4)cc3)c3ccccc3c-2nn1CC(O)CO (centres unmarked) [Example 11, 2-(2,3-Dihydroxypropyl)-5-[4-(1H-pyrazol-1-yl)benzyl]-2,5-dihydro-3H-pyrazolo[4,3-c]cinnolin-3-one]",193
6,"Cc1ccccc1-n1nc2c3ccccc3n(Cc3ccc(Br)cn3)nc-2c1=O [Example 21, 5-[(5-Bromopyridin-2-yl)methyl]-2-(2-methylphenyl)-2,5-dihydro-3H-pyrazolo[4,3-c]cinnolin-3-one]",2860
7,"Cc1ccccc1-n1nc2c3ccccc3n(Cc3ccc(-n4ccnc4)nc3)nc-2c1=O [Example 23, 5-{[6-(1H-Imidazol-1-yl)pyridine-3-yl]methyl}-2-(2-methylphenyl)-2,5-dihydro-3H-pyrazolo[4,3-c]cinnolin-3-one]",748
8,"Cc1ccccc1-n1nc2c3ccccc3n(Cc3ccc(-c4cnn(C)c4)nc3)nc-2c1=O [Example 25, 2-(2-Methylphenyl)-5-{[6-(1-methyl-1H-pyrazol-4-yl)pyridine-3-yl]methyl}-2,5-dihydro-3H-pyrazolo[4,3-c]cinnolin-3-one]",144
9,"Cc1ccccc1-n1nc2c3ccccc3n(Cc3ccc(N4CCOCC4)nc3)nc-2c1=O [Example 81, 2-(2-Methylphenyl)-5-{[6-(morpholin-4-yl)pyridine-3-yl]methyl}-2,5-dihydro-3H-pyrazolo[4,3-c]cinnolin-3-one]",1370
10,"Cc1nc(F)ccc1-n1nc2c3ccccc3n(Cc3ccc(-c4cnn(C)c4)nc3)nc-2c1=O [Example 86, 2-(6-Fluoro-2-methylpyridin-3-yl)-5-{[6-(1-methyl-1H-pyrazol-4-yl)pyridin-3-yl]methyl}-2,5-dihydro-3H-pyrazolo[4,3-c]cinnolin-3-one]",225

# Now those with a lower EC50, led by results:
row,EC50 [nM],SMILES
1,89,"CC1CCOCC1n1nc2c3ccccc3n(Cc3ccc(-n4cccn4)cc3)nc-2c1=O (racemic) [Example 71, (±)-2-[cis,trans-4-methyltetrahydro-2H-pyran-3-yl]-5-[4-(1H-pyrazol-1-yl)benzyl]-2,5-dihydro-3H-pyrazolo[4,3-c]cinnolin-3-one]"
2,47,"C[C@H]1CCOC[C@@H]1n1nc2c3ccccc3n(Cc3ccc(-n4cccn4)cc3)nc-2c1=O (single isomer, unassigned) [Example 72, trans-2-[4-Methyltetrahydro-2H-pyran-3-yl]-5-[4-(1H-pyrazol-1-yl)benzyl]-2,5-dihydro-3H-pyrazolo[4,3-c]cinnoline-3-one]"
3,42,O=c1c2nn(Cc3ccc(-n4cccn4)cc3)c3c(Cl)cccc3c-2nn1[C@@H]1CCCC[C@H]1O [Example 61]
4,29,"Cc1ccc(-c2ccc(Cn3nc4c(=O)n(-c5cccc(C)c5C)nc-4c4ccccc43)cn2)cn1 [Example 90, 2-(2,3-Dimethylphenyl)-5-[(6′-methyl-2,3′-bipyridin-5-yl)methyl]-2,5-dihydro-3H-pyrazolo[4,3-c]cinnolin-3-one]"
5,28,"O=c1c2nn(Cc3ccc(-n4cccn4)cc3)c3ccccc3c-2nn1-c1ccccc1F [Example 1, 2-(2-Fluorophenyl)-5-{[4-(1H-pyrazol-1-yl)phenyl]methyl}-2,5-dihydro-3H-pyrazolo[4,3-c]cinnolin-3-one]"
6,21,"O=c1c2nn(Cc3ccc(-n4cccn4)cc3)c3c(Cl)cccc3c-2nn1[C@H]1CCOC[C@@H]1O (single isomer, unassigned) [Example 62, 6-Chloro-2-(trans-3-hydroxytetrahydro-2H-pyran-4-yl)-5-[4-(1H-pyrazol-1-yl)benzyl]-2,5-dihydro-3H-pyrazolo[4,3-c]cinnolin-3-one]"
7,14,"N#Cc1cccc(F)c1-n1nc2c3ccccc3n(Cc3ccc(-n4cccn4)cc3)nc-2c1=O [Example 13, 3-Fluoro-2-(3-oxo-5-{[4-(1H-pyrazol-1-yl)phenyl]methyl}-3,5-dihydro-2H-pyrazolo[4,3-c]cinnolin-2-yl)benzonitrile]"
